Laboratory results reported in publication PMC11109052, “Metabolism characterization and toxicity of N-hydap, a marine candidate drug for lung cancer therapy by LC–MS method” (Natural Products and Bioprospecting, 2024).
Where two headings read alike, the source gives them in different places.

Key:
UGT1A1 = target: T1, UGT1A1 (Homo sapiens, UniProt P22309); test: Incubation with recombinant human UGT isoforms: UGT1A1; type: in vitro ADME; settings: recombinant UGT 2 μg/mL
T1 construct: purchased Cypex (Scotland, UK)
T1 sequence (P22309 26-533): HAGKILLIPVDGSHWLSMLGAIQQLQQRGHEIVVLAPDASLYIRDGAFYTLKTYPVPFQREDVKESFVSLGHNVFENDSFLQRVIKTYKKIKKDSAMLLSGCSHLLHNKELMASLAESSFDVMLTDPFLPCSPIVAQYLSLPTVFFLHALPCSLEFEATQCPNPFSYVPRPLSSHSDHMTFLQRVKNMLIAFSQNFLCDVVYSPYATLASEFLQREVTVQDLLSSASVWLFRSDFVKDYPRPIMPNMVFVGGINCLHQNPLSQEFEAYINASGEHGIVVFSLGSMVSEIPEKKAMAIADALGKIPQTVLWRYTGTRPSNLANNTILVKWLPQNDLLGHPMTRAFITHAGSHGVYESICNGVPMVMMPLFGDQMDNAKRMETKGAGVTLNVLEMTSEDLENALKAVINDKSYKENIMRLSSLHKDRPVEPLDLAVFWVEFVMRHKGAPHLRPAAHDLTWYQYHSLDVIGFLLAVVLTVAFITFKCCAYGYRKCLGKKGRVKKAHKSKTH
Description: Incubation of N-hydap (2.5 μM) with eight recombinant human CYP enzymes (CYP1A2, CYP2B6, CYP2C9, CYP2C19, CYP2D6, CYP3A4, CYP4A11 and CYP4F2) at three enzyme concentrations (2, 4, and 20 μg/mL) was conducted following the same procedure as described above for microsomes. Subsequently, incubation with N-hydap (1, 2.5, and 6 μM) and twelve recombinant human UGT isoforms (UGT1A1, UGT1A3, UGT1A4, UGT1A6, UGT1A7, UGT1A8, UGT1A9, UGT1A10, UGT2B4, UGT2B7, UGT2B15 and UGT2B17) was performed, with the enzyme concentration used at 2 μg/mL. All reactions were carried out in triplicate.

[1] = Pharmacokinetics studies in mice (plasma); type: in vivo
Description: Mice were fasted for 12 h with access to water before drug administration. N-Hydap was dissolved in a solution containing 50% methanol and water. Before administration, the drug was diluted with PBS to achieve concentrations of 5 mg/kg and 2 mg/kg for gastric gavage and tail vein administration, respectively. Blood samples (120 μL) were collected from the orbital venous plexus at 2, 5, 10, 15, 30, 60, 90, 120, 180, and 240 min after N-hydap administration. The blood samples were collected into heparinized micro-centrifuge tubes and immediately centrifuged at 8000 rpm for 5 min at 4 °C. Plasma samples were prepared by adding an internal standard (IS) solution, Tes to the samples, followed by vortexing. The mixtures were then centrifuged at 4 °C and 13,000 rpm for 15 min. The resulting supernatant was dried under vacuum for 3–4 h, and the dry powder was reconstituted with a solution of 50% methanol and water. Finally, the plasma samples were analyzed using LC–MS, following the previously described method.
DAS 2.0 was used to calculate pharmacokinetic parameters using the standard non-compartmental method. All results were presented as mean ± standard deviation and significant differences were analyzed using One-way ANOVA by GraphPad Prism 8. Statistical significance was defined as p < 0.05.

Cyp2b10 = test: Real-time PCR mRNA level after 7 days gavage: Cyp2b10; type: in vivo; settings: mice, 2, 5, 10 mg/kg p.o. 7 days
Description: Mice were randomly divided into four groups, with eight animals in each group. The mice received oral pretreatment with N-hydap for 7 days at doses of 2, 5, and 10 mg/kg/day, which were considered as the low dose, medium dose, and high dose, respectively. Correspondingly, the control group received PBS. On the 8th day, the liver and kidneys were removed, and organs from eight mice per group were combined to prepare MLMs and MKMs using the detailed procedures above. Subsequently, we determined the activity of CYP and UGT enzymes by specific substrate metabolized with MLMs (0.5 mg/mL) and MKMs (0.2 mg/mL) in vitro. […] In the ex vivo experiments, the activity of enzymes was measured by quantifying the production of various metabolites (nM/mg protein/min). […] The measurements were performed using multiple reaction monitoring (MRM) transitions, which are specific mass spectrometry transitions used for quantification. […]
Total RNA from liver and kidney samples taken after 7 days of N-hydap gavage was extracted using the Animal Total RNA Isolation Kit (Foregene, Chengdu, Sichuan, China) following the manufacturer’s instructions. The concentrations of total RNA were determined by a nucleic acid concentration tester at 260/280 nm. […]

Cyp1a2 = test: DME activity ex vivo in MLMs and MKMs: CYP1A2 (APAP from PH); parameters: species or system mice; key to CYP1A2 Enzymatic activity: ↑: up-regulation; ↓: down-regulation; –: no change
Description: (§1) Mice were randomly divided into four groups, with eight animals in each group. The mice received oral pretreatment with N-hydap for 7 days at doses of 2, 5, and 10 mg/kg/day, which were considered as the low dose, medium dose, and high dose, respectively. Correspondingly, the control group received PBS. On the 8th day, the liver and kidneys were removed, and organs from eight mice per group were combined to prepare MLMs and MKMs using the detailed procedures above. Subsequently, we determined the activity of CYP and UGT enzymes by specific substrate metabolized with MLMs (0.5 mg/mL) and MKMs (0.2 mg/mL) in vitro. Specifically, the following selective substrates were used for the respective enzymes: PH (1 μM) for CYP1A2, DIC (1 μM) for CYP2C9, MP (90 μM) for CYP2C19, DM (1 μM) for CYP2D6, CZX (10 μM) for CYP2E1, Tes (1 μM) for CYP3A4, SN38 (1 μM) for UGT1A1, CACD (100 μM) for UGT1A3, Sero (20 μM) for UGT1A6, and Prop (1 μM) for UGT1A9. All substrates were dissolved in methanol or DMSO. The incubation procedure was carried out as mentioned above, and the reaction was terminated with VER (20 ng/mL) in ESI+ mode and CLP (200 ng/mL) in ESI− mode. In the ex vivo experiments, the activity of enzymes was measured by quantifying the production of various metabolites (nM/mg protein/min). The metabolites and their corresponding enzymes are as follows: APAP from PH, 4-OH-DIC from DIC, 4-OH-MP from MP, DXO from DM, 6-OH-CZX from CZX, 6-OH-Tes from Tes, SN38-G from SN38, CACD-G from CACD, Sero-G from Sero, Prop-G from Prop. The measurements were performed using multiple reaction monitoring (MRM) transitions, which are specific mass spectrometry transitions used for quantification. The optimized parameters for each metabolite, such as declustering potential and collision energy, were described in Supplementary Table 1. All experiments were conducted in triplicate, to ensure accuracy and reproducibility.

UGT1A6 = test: DME activity ex vivo in MLMs and MKMs: UGT1A6 (Sero-G from Sero); parameters: species or system mice; key to UGT1A6 Enzymatic activity: ↑: up-regulation; ↓: down-regulation; –: no change
Description: as §1

RoRγ = tested on: RoRγ; parameters: method as in PMID 35259480; settings: cited from earlier work
[2] = mouse, plasma, iv, mice, tail vein injection 2 mg/kg
[3] = mouse, plasma, mice, oral administration 5 mg/kg

With `CC1CCC2C(C=CC(C)C2C(=O)c2c(O)c(C3(O)CCC(O)C4OC43)cn(O)c2=O)C1` (centres unmarked) [N-hydap, N-Hydroxyapiosporamide] the “contribution of UGT1A1 to formation of N-hydap-G” value (UGT1A1) was “secondary contributors”, the “CL, experimental results” value ([1]; Table 4 experimental column) was “High clearance” and the CLz/F ([1]; mice, tail vein injection 2 mg/kg) was 31 ± 1 mL/min/kg. The AUC(0-t) [1, 2] was 2.36 µM·h, the Cmax [1, 2] was 4.79 ± 0.726 µM and the Tmax [1, 2] was 3 min. For the same compound, the half-life ([1]; mouse, plasma, iv, mice, tail vein injection 2 mg/kg, read-out: t1/2z) was 61.2 ± 14.2 min, the half-life ([1]; mouse, plasma, Table 4 experimental column, read-out: T1/2, experimental results) was under 60 min and the bioavailability ([1]; mouse, plasma, mice, oral 5 mg/kg vs tail vein 2 mg/kg, read-out: F (oral bioavailability)) was 24%. For the same compound, the AUC(0-t) [1, 3] was 1.41 µM·h, the Cmax [1, 3] was 2.06 ± 0.951 µM and the Tmax [1, 3] was 15 min. The CL/F ([1]; mouse, plasma, mice, oral administration 5 mg/kg, read-out: CLz/F) was 134 ± 39 mL/min/kg, the half-life ([1]; mouse, plasma, mice, oral administration 5 mg/kg, read-out: t1/2z) was 57.6 ± 12.7 min and the “mRNA levels of Cyp2b10” value (Cyp2b10; kidneys) was “slight reduction”. For the same compound, the “decrease of mRNA levels of Cyp2b10” value (Cyp2b10; liver) was 35%, the “CYP1A2 Enzymatic activity” value (Cyp1a2; Kidney) was “↑” and the “CYP1A2 Enzymatic activity” value (Cyp1a2; Liver) was “–”. For the same compound, the “elevation of formation rate of APAP” value (Cyp1a2; MKMs, range stated jointly for APAP, SN38-G, 6-OH-Tes and CDCA-G) was 12%-331%, the “UGT1A6 Enzymatic activity” value (UGT1A6; Kidney) was “–” and the “UGT1A6 Enzymatic activity” value (UGT1A6; Liver) was “↓”. The “reduction of formation rate of Sero-G vs control” value (UGT1A6; liver microsomes of mice pretreated 7 days p.o.) was 72% and the “action on RoRγ” value (RoRγ) was “RoRγ antagonist”.
